In one assay the test system is Aedes aegypti. To be noted: J. Med. Entomol. 41 (4) (2004); cited from earlier work.
Another assay deals with Anopheles gambiae. To be noted: J. Med. Entomol. 41 (4) (2004); cited from earlier work.
For assay [1], the system named is VKPR mosquito strain (also called VKPER) of Anopheles gambiae. Conditions: VKPR strain with mutation for knockdown resistance to pyrethroids; cited from earlier work.
The subject of another assay is Culex quinquefasciatus. To be noted: J. Med. Entomol. 41 (4) (2004); cited from earlier work.
Assay [2] has as its system ACE (acetylcholinesterase) of resistant mosquitoes. To be noted: 10 microliters insecticide solution (10^-2 M), 15 min at ambient temperature, optical density over 10 min.
Description: (§1) The differences in the properties of the ACE (acetylcholinesterase) between mosquitoes that have this form of resistance and sensitive mosquitoes can be detected using the following test: • Experimental protocol TESTS No.-1: Sensitive and resistant mosquitoes.
(§2) 1° the mosquito (or larva) is crushed and the crushed material is homogenized in an Eppendorf tube with a buffer solution (20 mM tris, pH 7, containing 1% of Triton X-100). After centrifugation at 10,000 g for 2 minutes, the supernatant (which contains the ACE) is collected and distributed in the wells (A) and (B) of a microplate (100 microliters in each well),
(§3) Johnson in well (B), and 10 microliters of alcohol, in well (A). The microplate is left for 15 min at ambient temperature (which is sufficient to allow the action, if any, of the insecticide),
(§4) 3°determination of the catalytic activity of the ACE (acetylcholinesterase): in each well is added 100 microliters of a solution containing acetylcholine (2.5 mM) and 0.2 mM of DTNB (dinitro-2-benzoic). The intensity of the coloration is assessed by measuring the optical density (the optical density increases based on the coloration) If the enzyme is active, the products of the hydrolysis of the acetylcholine react with the DTNB to produce a substance that features an absorption peak for the radiations of 412 nm. It is therefore possible to follow the reaction by spectrophotometry. […]
Assay [3] relates to ACE (acetylcholinesterase) of sensitive mosquitoes. Conditions: 10 microliters insecticide solution (10^-2 M), 15 min at ambient temperature, optical density over 10 min.
Description: as §1, §2, §3, §4

The structures appear in SMILES notation.

The values that follow come from patent US20250324969A1.

As to `CN/C(=N/CC1CCOC1)N[N+](=O)[O-]` (stereo not drawn) [Dinotefuran], the Effect on mosquitoes entry (in the assay on Aedes aegypti; with Anopheles gambiae; in assay [1]; in the assay with Culex quinquefasciatus) was “lethal effect” throughout.
`CNC(=O)Oc1ccccc1OC(C)C` [Propoxur]: the “Effect of the insecticide on ACE catalytic activity (evolution of the optical density, insecticide well (B) vs control well (A))” value in assay [2] is “completely resistant”; in assay [3] it was “insufficient to prevent the Propoxur insecticide (Baygon) from working”.
